# Test results: US10858360B2, “Tricyclic gyrase inhibitors” (priority 2011, dated 2020)
# Read-outs that look alike come from different tables or passages of the source.
# Columns and labels:
# [1] = tested on: S. aureus ATCC 13709; assay: MIC, S. aureus ATCC 13709 (Alamar Blue broth microdilution); type: cell-based; conditions: for MIC: Staphylococcus aureus, ATCC13709, S. aureus
# [2] = tested on: E. coli ATCC 25922; assay: MIC, E. coli ATCC 25922; type: cell-based; conditions: for MIC: Escherichia coli, ATCC25922, E. coli
# [3] = Alamar Blue read after overnight incubation at 35° C.
# [4] = S. aureus, Alamar Blue read after overnight incubation at 35° C.
# [5] = E. coli, Alamar Blue read after overnight incubation at 35° C.
structure (smiles),measurement,setting,value
CNc1cc(F)cc2c1[nH]c1nc(Oc3cnc(N)nc3)nc(N3CC4CC4(CN)C3)c12 (stereo not shown) [4.185],MIC,[1]; [3],≤ 0.5 mg/L
same,MIC,[2]; [3],8 mg/L
CNc1cc(F)cc2c1[nH]c1nc(Oc3cnc(C)nc3)nc(N3CC4CC3CC4N)c12 (stereo not shown) [4.129],MIC Sa,[1]; [4],≤0.5 mg/L
same,MIC Ec,[2]; [5],≤0.5 mg/L
CNc1cc(F)cc2c1[nH]c1nc(Oc3cnc4cccnc4c3)nc(N3CC4CCN[C@H]4C3)c12 (stereo partly shown) [4.044],MIC,[1]; [3],≤ 0.5 mg/L
same,MIC,[2]; [3],≤ 0.5 mg/L
CNc1cc(F)cc2c1[nH]c1nc(Oc3cnc(N4CCCC4=O)nc3)nc(N3CC4C(N)C4C3)c12 (stereo not shown) [4.345],MIC,[1]; [3],≤ 0.5 mg/L
same,MIC,[2]; [3],2 mg/L
CNc1cc(F)cc2c1[nH]c1nc(Oc3cnc(C)nc3)nc(N3CC(N)C3)c12 [4.138],MIC Sa,[1]; [4],≤0.5 mg/L
same,MIC Ec,[2]; [5],≤0.5 mg/L
CNc1cc(F)cc2c1[nH]c1nc(Oc3cnc(N)nc3)nc(N3C[C@H]4CC[C@@H](N)[C@H]4C3)c12 [4.186],MIC,[1]; [3],≤ 0.5 mg/L
same,MIC,[2]; [3],2 mg/L
CNc1cc(F)cc2c1[nH]c1nc(Oc3cncc(-c4ccco4)c3)nc(N3CC4CC(N)C4C3)c12 (stereo not shown) [4.350],MIC Sa,[1]; [4],≤0.5 mg/L
same,MIC Ec,[2]; [5],4 mg/L
CNc1cccc2c1[nH]c1nc(Sc3cnc4ccc[n+]([O-])c4c3)nc(N3CC4C(N)C4C3)c12 (stereo not shown) [1.66],MIC Sa,[1]; [4],≤0.13 mg/L
same,MIC Ec,[2]; [5],≤0.5 mg/L
CNc1cccc2c1[nH]c1nc(Sc3cnc4cccnc4c3)nc(N3CCN(C(C)=O)CC3)c12 [1.67],MIC,[1]; [3],≤ 0.5 mg/L
same,MIC,[2]; [3],> 64 mg/L
CNc1cccc2c1[nH]c1nc(Oc3cnc(C)nc3)nc(Oc3cnc(C)nc3)c12 [3.38],MIC,[1]; [3],1 mg/L
same,MIC,[2]; [3],> 32 mg/L
CNc1cc(F)cc2c1[nH]c1nc(Oc3cncc(OC)c3)nc(N3CCC4CNC4C3)c12 (stereo not shown) [4.166],MIC,[1]; [3],≤ 0.5 mg/L
same,MIC,[2]; [3],2 mg/L
CNc1cc(F)cc2c1[nH]c1nc(Oc3cncc([S+](C)[O-])c3)nc(N3CC(N)C4(CC4)C3)c12 (stereo not shown) [4.352],MIC Sa,[1]; [4],≤0.5 mg/L
same,MIC Ec,[2]; [5],4 mg/L
CNc1cc(F)cc2c1[nH]c1nc(Oc3cncc(F)c3)nc(N3CC4CNC(C4)C3)c12 (stereo not shown) [4.058],MIC,[1]; [3],≤ 0.5 mg/L
same,MIC,[2]; [3],≤ 0.5 mg/L
CNc1cc(F)cc2c1[nH]c1nc(Oc3cc(O)cc4oc(=O)cc(C)c34)nc(N3CC4CC(N)C4C3)c12 (stereo not shown) [4.383],MIC Sa,[1]; [4],4 mg/L
same,MIC Ec,[2]; [5],>16 mg/L
COc1cccc2c1[nH]c1nc(Oc3cncc(C#N)c3)nc(N3CC4C(N)C4C3)c12 (stereo not shown) [2.15],MIC Sa,[1]; [4],1 mg/L
same,MIC Ec,[2]; [5],>32 mg/L
CNc1cc(F)cc2c1[nH]c1nc(Oc3cnc(CCO)nc3)nc(N3CC4CC3C[C@@H]4N)c12 (stereo partly shown) [4.414],MIC,[1]; [3],≤ 0.5 mg/L
same,MIC,[2]; [3],2 mg/L
CNc1cc(F)cc2c1[nH]c1nc(Oc3cnc4c(c3)OCCO4)nc(N3CC4CC(N)C4C3)c12 (stereo not shown) [4.294],MIC,[1]; [3],≤ 0.5 mg/L
same,MIC,[2]; [3],1 mg/L
CNc1cccc2c1[nH]c1nc(Oc3cncnc3)nc(N3C[C@H](N)C4(CC4)C3)c12 [3.47],MIC,[1]; [3],≤ 0.5 mg/L
same,MIC,[2]; [3],≤ 0.5 mg/L
CNc1cccc2c1[nH]c1nc(Oc3cncnc3)nc(N3CCC(C(N)=O)C3)c12 (stereo not shown) [3.17],MIC,[1]; [3],2 mg/L
same,MIC,[2]; [3],> 16 mg/L
CNc1ncc(Oc2nc(N3CC(N)C4(CC4)C3)c3c(n2)[nH]c2c(NC)cc(F)cc23)cn1 (stereo not shown) [4.216],MIC Sa,[1]; [4],≤0.5 mg/L
same,MIC Ec,[2]; [5],≤0.5 mg/L
CNc1cccc2c1[nH]c1nc(Oc3ccc[n+]([O-])c3)nc(Oc3cnc(C)nc3)c12 [3.39],MIC,[1]; [3],2 mg/L
same,MIC,[2]; [3],64 mg/L
CNc1cc(F)cc2c1[nH]c1nc(Oc3cncc(C#N)c3)nc(N3CC4CC(N)C4C3)c12 (stereo not shown) [4.053],MIC Sa,[1]; [4],≤0.5 mg/L
same,MIC Ec,[2]; [5],≤0.5 mg/L
CNc1cc(Cl)cc2c1[nH]c1nc(Oc3cnc(N)nc3)nc(N3CCC4(CC4N)C3)c12 (stereo not shown) [6.15],MIC Sa,[1],≤0.5 mg/L
same,MIC Ec,[2],≤0.5 mg/L
CNc1cc(F)cc2c1[nH]c1nc(Oc3cnc4cccnc4c3)nc(N3CC4[C@H](C[C@H]4N)C3)c12 (stereo partly shown) [4.043],MIC,[1]; [3],≤ 0.5 mg/L
same,MIC,[2]; [3],≤ 0.5 mg/L
CNc1cc(F)cc2c1[nH]c1nc(Oc3cnc(CCO)nc3)nc(N3CC4CC3C[C@@H]4N)c12 (stereo partly shown) [4.428],MIC Sa,[1]; [4],≤0.5 mg/L
same,MIC Ec,[2]; [5],2 mg/L
CNc1cc(F)cc2c1[nH]c1nc(Oc3cnc(N4CC(O)C4)nc3)nc(N3C[C@H](N)C4(CC4)C3)c12 [4.299],MIC,[1]; [3],≤ 0.5 mg/L
same,MIC,[2]; [3],4 mg/L
CNc1cc(F)cc2c1[nH]c1nc(Oc3cnc(C)nc3)nc(N3CC4CCC(N)C3C4)c12 (stereo not shown) [4.123],MIC Sa,[1]; [4],16 mg/L
same,MIC Ec,[2]; [5],>16 mg/L
COc1cccc2c1[nH]c1nc(Oc3cncnc3)nc(N3CC4C(N)C4C3)c12 (stereo not shown) [2.13],MIC Sa,[1]; [4],2 mg/L
same,MIC Ec,[2]; [5],64 mg/L
CNc1cccc2c1[nH]c1nc(Oc3cncnc3)nc(Oc3cncnc3)c12 [3.37],MIC,[1]; [3],2 mg/L
same,MIC,[2]; [3],> 64 mg/L
Cc1ncc(Oc2nc(N3C[C@H](N)C4(CC4)C3)c3c(n2)[nH]c2c(N(C)C(=O)[C@H](C)N)cc(F)cc23)cn1 [4.423],MIC,[1]; [3],> 16 mg/L
same,MIC,[2]; [3],> 16 mg/L
CNc1cccc2c1[nH]c1nc(Sc3ccc4ccc(C(=O)O)nc4c3)nc(N3CC4C(N)C4C3)c12 (stereo not shown) [1.74],MIC,[1]; [3],4 mg/L
same,MIC,[2]; [3],> 64 mg/L
CNc1cccc2c1[nH]c1nc(Oc3cncnc3)nc(N3CCN(CCN)CC3)c12 [3.56],MIC,[1]; [3],> 64 mg/L
same,MIC,[2]; [3],> 64 mg/L
CNc1cc(F)cc2c1[nH]c1nc(Oc3ccc(C#N)nc3)nc(N3CC4CCNC4C3)c12 (stereo not shown) [4.330],MIC Sa,[1]; [4],≤0.5 mg/L
same,MIC Ec,[2]; [5],≤0.5 mg/L
CCNC(=O)c1cncc(Oc2nc(NCC)c3c(n2)[nH]c2c(NC)cc(F)cc23)c1 [4.384],MIC Sa,[1]; [4],1 mg/L
same,MIC Ec,[2]; [5],>16 mg/L
CNc1cc(F)cc2c1[nH]c1nc(Oc3cnc(C)nc3)nc(N3CC(NCCO)C4(CC4)C3)c12 (stereo not shown) [4.089],MIC Sa,[1]; [4],≤0.5 mg/L
same,MIC Ec,[2]; [5],≤0.5 mg/L
CNc1cc(F)cc2c1[nH]c1nc(Oc3cnc(C)nc3)nc(N3C4CCC3CC(N)C4)c12 (stereo not shown) [4.091],MIC Sa,[1]; [4],≤0.5 mg/L
same,MIC Ec,[2]; [5],1 mg/L
CNc1cc(F)cc2c1[nH]c1nc(Oc3cnc(C)nc3)nc(-c3cncc(N)c3)c12 [4.450],MIC,[1]; [3],≤ 0.5 mg/L
same,MIC,[2]; [3],2 mg/L
CNc1cc(F)cc2c1[nH]c1nc(Oc3cncnc3)nc(N3CC4CC(N)C4C3)c12 (stereo not shown) [4.026],MIC,[1]; [3],≤ 0.5 mg/L
same,MIC,[2]; [3],≤ 0.5 mg/L
Nc1cccc2c1[nH]c1nc(Sc3cnc4cccnc4c3)nc(N3CC4C(N)C4C3)c12 (stereo not shown) [1.9],MIC,[1]; [3],64 mg/L
same,MIC,[2]; [3],> 64 mg/L
CNc1cccc2c1[nH]c1nc(Oc3cnc(N4CCOCC4)nc3)nc(N3CC4C(N)C4C3)c12 (stereo not shown) [3.26],MIC,[1]; [3],> 16 mg/L
same,MIC,[2]; [3],> 16 mg/L
CNc1cc(F)cc2c1[nH]c1nc(Oc3ccc4c(N)nc(C)nc4c3)nc(N3CC4C(N)C4C3)c12 (stereo not shown) [4.288],MIC Sa,[1]; [4],4 mg/L
same,MIC Ec,[2]; [5],>16 mg/L
CNc1cc(Cl)cc2c1[nH]c1nc(Oc3cnc4cccnc4c3)nc(N3CCCC4(CC4N)C3)c12 (stereo not shown) [6.14],MIC Sa,[1],≤0.5 mg/L
same,MIC Ec,[2],1 mg/L
CNc1cc(F)cc2c1[nH]c1nc(Oc3cnc(N)nc3)nc(N3CCC4(CC4N)C3)c12 (stereo not shown) [4.173],MIC,[1]; [3],≤ 0.5 mg/L
same,MIC,[2]; [3],1 mg/L
CNc1ccc(F)c2c1[nH]c1nc(Oc3cnc(N)nc3)nc(C3CC4C(N)C4C3)c12 (stereo not shown) [6.25],MIC,[1]; [3],≤ 0.5 mg/L
same,MIC,[2]; [3],≤ 0.5 mg/L
CCOC(=O)c1ncc(Oc2nc(N3CC4CC3C[C@@H]4N)c3c(n2)[nH]c2c(NC)cc(F)cc23)cn1 (stereo partly shown) [4.400],MIC,[1]; [3],≤ 0.5 mg/L
same,MIC,[2]; [3],≤ 0.5 mg/L
CNc1cc(F)cc2c1[nH]c1nc(Oc3cnc(C)nc3)nc(N3CC(NC(=O)C(C)N)C4(CC4)C3)c12 (stereo not shown) [4.142],MIC Sa,[1]; [4],≤0.5 mg/L
same,MIC Ec,[2]; [5],1 mg/L
CNc1cc(F)cc2c1[nH]c1nc(Oc3cnc(C4CCC4)nc3)nc(N3C[C@H](N)C4(CC4)C3)c12 [4.287],MIC,[1]; [3],≤ 0.5 mg/L
same,MIC,[2]; [3],≤ 0.5 mg/L
